# Where a SMILES comes first, the peptide text is derived from it. [ ]: non-standard residue; d: D form. The star is where a group is joined. NHCH2CH2OH = OCCN*; For = O=C*
# Experiments:
# [1] = test system: Streptococcus pyogenes SSI-9; assay: Antibacterial activity assay of bead-derived peptides (three concentrations); format: cell-based; parameters: key: +++: inhibition by the 640-fold diluted peptide solution; ++: inhibition by the 160-fold diluted solution; +: inhibition by the 40-fold diluted solution; -: no inhibition; settings: S. pyogenes, bead-derived peptide solution, three concentrations
# How it was run: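 Three stock dilutions per peptide (none, 4-fold, 16-fold in DMSO) are screened in 96-well format. The medium is blood-supplemented cation-adjusted MHB, inoculated with 2 × 10^5 CFU S. pyogenes SSI-9. Growth is read as cell precipitation at 18 h, 37 °C.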
# [2] = test system: P388 mouse leukemia cells; settings: 92 h
# How it was run: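 First, library peptide stocks are diluted 250-fold in RPMI1640 with 10% heat-inactivated FBS. Next, they are mixed with P388 cells to give 1 × 10^4 cells/mL and incubated 92 h at 37 °C, 5% CO2. Finally, viability (%) is scored by WST-1 absorbance at 415 nm.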
# [3] = H+/Na+ transport assay of bead-derived peptides (one-point); format: biochemical; parameters: key: relative activity; mean of two control wells = 1.00; settings: bead-derived peptide solution, EYPC/EYPG LUVs;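 also: relative to parent gramicidin A activity set to 1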
# How it was run: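 Miniaturized 96-well format. LUVs with entrapped pyranine (1.0 mM) were exposed to peptide for 30 min at RT. Intensities were expressed relative to full lysis by Triton X-100 and no treatment, with control-well mean = 1.00.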
SMILES,antibacterial activity [1],cell viability/% [2],H+/Na+ transport activity normalized against the value of 1 (1.00) [3]
CNC(=O)C[C@@H](NC(=O)[C@@H](NC(=O)[C@@H](CC(C)C)NC(=O)[C@H](C)NC(=O)[C@@H](CC(C)C)NC(=O)[C@H](C)NC(=O)CNC(=O)[C@@H](NC=O)C(C)C)C(C)C)C(=O)N[C@@H](Cc1c[nH]c2ccccc12)C(=O)N[C@@H](C(=O)N[C@@H](Cc1c[nH]c2ccccc12)C(=O)N[C@@H](C(=O)N[C@@H](Cc1c[nH]c2ccccc12)C(=O)N[C@H](CC(C)C)C(=O)N[C@@H](Cc1c[nH]c2ccccc12)C(=O)NCCO)C(C)C)C(C)C [compound 11228] (For-VGA[dL]A[dL]V[dD](NHMe)W[dV]W[dV]W[dL]W-NHCH2CH2OH),-,76.4%,1.27
CC(C)C[C@@H](NC(=O)[C@H](C)NC(=O)CNC(=O)[C@@H](NC=O)C(C)C)C(=O)N[C@@H](C)C(=O)N[C@@H](C(=O)N[C@H](C(=O)N[C@@H](C(=O)N[C@@H](Cc1c[nH]c2ccccc12)C(=O)N[C@@H](C(=O)N[C@@H](Cc1c[nH]c2ccccc12)C(=O)N[C@H](CC(C)C)C(=O)N[C@@H](Cc1c[nH]c2ccccc12)C(=O)N[C@@H](C(=O)N[C@@H](Cc1c[nH]c2ccccc12)C(=O)NCCO)C(C)C)C(C)C)C(C)C)C(C)C)C(C)C [compound 6861] (For-VGA[dL]A[dV]V[dV]W[dV]W[dL]W[dV]W-NHCH2CH2OH),+,100.0%,1.18
CC(C)C[C@@H](NC(=O)[C@H](C)NC(=O)CNC(=O)[C@@H](NC=O)C(C)C)C(=O)N[C@@H](C)C(=O)N[C@@H](C(=O)N[C@H](C(=O)N[C@@H](C(=O)N[C@@H](Cc1c[nH]c2ccccc12)C(=O)N[C@H](CC(C)C)C(=O)N[C@@H](Cc1c[nH]c2ccccc12)C(=O)N[C@@H](C(=O)N[C@@H](Cc1c[nH]c2ccccc12)C(=O)N[C@H](CC(C)C)C(=O)N[C@@H](Cc1c[nH]c2ccccc12)C(=O)NCCO)C(C)C)[C@H](C)O)C(C)C)C(C)C [compound 4279] (For-VGA[dL]A[dV]V[dT]W[dL]W[dV]W[dL]W-NHCH2CH2OH),-,98.8%,1.05
CNC(=O)C[C@@H](NC(=O)[C@H](Cc1c[nH]c2ccccc12)NC(=O)[C@@H](CC(C)C)NC(=O)[C@H](Cc1c[nH]c2ccccc12)NC(=O)[C@@H](CC(C)C)NC(=O)[C@H](Cc1c[nH]c2ccccc12)NC(=O)[C@H](NC(=O)[C@@H](NC(=O)[C@@H](CC(C)C)NC(=O)[C@H](C)NC(=O)[C@@H](CC(C)C)NC(=O)[C@H](C)NC(=O)CNC(=O)[C@@H](NC=O)C(C)C)C(C)C)C(C)C)C(=O)N[C@@H](Cc1c[nH]c2ccccc12)C(=O)NCCO [compound 6829] (For-VGA[dL]A[dL]V[dV]W[dL]W[dL]W[dD](NHMe)W-NHCH2CH2OH),-,100.0%,1.05
CC(C)C[C@@H](NC(=O)[C@H](C)NC(=O)[C@H](NC(=O)[C@H](C)NC(=O)CNC(=O)[C@@H](NC=O)C(C)C)C(C)C)C(=O)N[C@H](C(=O)N[C@H](CC(C)C)C(=O)N[C@@H](Cc1c[nH]c2ccccc12)C(=O)N[C@@H](C(=O)N[C@@H](Cc1c[nH]c2ccccc12)C(=O)N[C@H](CC(C)C)C(=O)N[C@@H](Cc1c[nH]c2ccccc12)C(=O)N[C@@H](C(=O)N[C@@H](Cc1c[nH]c2ccccc12)C(=O)NCCO)C(C)C)C(C)C)C(C)C [compound 9742] (For-VGA[dV]A[dL]V[dL]W[dV]W[dL]W[dV]W-NHCH2CH2OH),+,0.0%,1.21
CNC(=O)C[C@@H](NC(=O)[C@@H](NC(=O)[C@H](NC(=O)[C@H](C)NC(=O)[C@@H](CC(C)C)NC(=O)[C@H](C)NC(=O)CNC(=O)[C@@H](NC=O)C(C)C)C(C)C)C(C)C)C(=O)N[C@@H](Cc1c[nH]c2ccccc12)C(=O)N[C@@H](C(=O)N[C@@H](Cc1c[nH]c2ccccc12)C(=O)N[C@H](CC(C)C)C(=O)N[C@@H](Cc1c[nH]c2ccccc12)C(=O)N[C@@H](C(=O)N[C@@H](Cc1c[nH]c2ccccc12)C(=O)NCCO)C(C)C)C(C)C [compound 5185] (For-VGA[dL]A[dV]V[dD](NHMe)W[dV]W[dL]W[dV]W-NHCH2CH2OH),-,100.0%,1.40
CC(C)C[C@@H](NC(=O)[C@H](C)NC(=O)CNC(=O)[C@@H](NC=O)C(C)C)C(=O)N[C@@H](C)C(=O)N[C@@H](C(=O)N[C@H](C(=O)N[C@@H](C(=O)N[C@@H](Cc1c[nH]c2ccccc12)C(=O)N[C@H](CC(C)C)C(=O)N[C@@H](Cc1c[nH]c2ccccc12)C(=O)N[C@H](CC(C)C)C(=O)N[C@@H](Cc1c[nH]c2ccccc12)C(=O)N[C@@H](C(=O)N[C@@H](Cc1c[nH]c2ccccc12)C(=O)NCCO)C(C)C)[C@H](C)O)C(C)C)C(C)C [compound 6702] (For-VGA[dL]A[dV]V[dT]W[dL]W[dL]W[dV]W-NHCH2CH2OH),+,100.0%,1.03
CNC(=O)C[C@@H](NC(=O)[C@@H](NC(=O)[C@H](NC(=O)[C@H](C)NC(=O)[C@@H](CC(C)C)NC(=O)[C@H](C)NC(=O)CNC(=O)[C@@H](NC=O)C(C)C)C(C)C)C(C)C)C(=O)N[C@@H](Cc1c[nH]c2ccccc12)C(=O)N[C@@H](C(=O)N[C@@H](Cc1c[nH]c2ccccc12)C(=O)N[C@H](CC(C)C)C(=O)N[C@@H](Cc1c[nH]c2ccccc12)C(=O)N[C@@H](C(=O)N[C@@H](Cc1c[nH]c2ccccc12)C(=O)NCCO)C(C)C)C(C)C [compound 5778] (For-VGA[dL]A[dV]V[dD](NHMe)W[dV]W[dL]W[dV]W-NHCH2CH2OH),-,77.8%,1.19
CC(C)C[C@@H](NC(=O)[C@H](C)NC(=O)[C@H](NC(=O)[C@H](C)NC(=O)CNC(=O)[C@@H](NC=O)C(C)C)C(C)C)C(=O)N[C@H](C(=O)N[C@@H](C(=O)N[C@@H](Cc1c[nH]c2ccccc12)C(=O)N[C@@H](C(=O)N[C@@H](Cc1c[nH]c2ccccc12)C(=O)N[C@@H](C(=O)N[C@@H](Cc1c[nH]c2ccccc12)C(=O)N[C@@H](C(=O)N[C@@H](Cc1c[nH]c2ccccc12)C(=O)NCCO)C(C)C)C(C)C)C(C)C)[C@H](C)O)C(C)C [compound 12283] (For-VGA[dV]A[dL]V[dT]W[dV]W[dV]W[dV]W-NHCH2CH2OH),-,100.0%,1.08
CNC(=O)C[C@@H](NC(=O)[C@@H](NC(=O)[C@H](NC(=O)[C@H](C)NC(=O)[C@@H](CC(C)C)NC(=O)[C@H](C)NC(=O)CNC(=O)[C@@H](NC=O)C(C)C)C(C)C)C(C)C)C(=O)N[C@@H](Cc1c[nH]c2ccccc12)C(=O)N[C@@H](C(=O)N[C@@H](Cc1c[nH]c2ccccc12)C(=O)N[C@H](CC(C)C)C(=O)N[C@@H](Cc1c[nH]c2ccccc12)C(=O)N[C@@H](C(=O)N[C@@H](Cc1c[nH]c2ccccc12)C(=O)NCCO)C(C)C)C(C)C [compound 8732] (For-VGA[dL]A[dV]V[dD](NHMe)W[dV]W[dL]W[dV]W-NHCH2CH2OH),-,72.4%,1.11
CC(C)C[C@@H](NC(=O)[C@H](C)NC(=O)CNC(=O)[C@@H](NC=O)C(C)C)C(=O)N[C@@H](C)C(=O)N[C@H](CC(C)C)C(=O)N[C@H](C(=O)N[C@@H](C(=O)N[C@@H](Cc1c[nH]c2ccccc12)C(=O)N[C@@H](C(=O)N[C@@H](Cc1c[nH]c2ccccc12)C(=O)N[C@@H](C(=O)N[C@@H](Cc1c[nH]c2ccccc12)C(=O)N[C@@H](C(=O)N[C@@H](Cc1c[nH]c2ccccc12)C(=O)NCCO)C(C)C)[C@H](C)O)C(C)C)C(C)C)C(C)C [compound 8749] (For-VGA[dL]A[dL]V[dV]W[dV]W[dT]W[dV]W-NHCH2CH2OH),-,62.2%,1.05
CC(C)C[C@@H](NC(=O)[C@H](C)NC(=O)CNC(=O)[C@@H](NC=O)C(C)C)C(=O)N[C@@H](C)C(=O)N[C@H](CC(C)C)C(=O)N[C@H](C(=O)N[C@@H](C(=O)N[C@@H](Cc1c[nH]c2ccccc12)C(=O)N[C@@H](C(=O)N[C@@H](Cc1c[nH]c2ccccc12)C(=O)N[C@H](CC(C)C)C(=O)N[C@@H](Cc1c[nH]c2ccccc12)C(=O)N[C@H](CC(C)C)C(=O)N[C@@H](Cc1c[nH]c2ccccc12)C(=O)NCCO)C(C)C)C(C)C)C(C)C [compound 8858] (For-VGA[dL]A[dL]V[dV]W[dV]W[dL]W[dL]W-NHCH2CH2OH),+,84.7%,1.05
CC(C)C[C@@H](NC(=O)[C@H](C)NC(=O)[C@H](NC(=O)[C@H](C)NC(=O)CNC(=O)[C@@H](NC=O)C(C)C)C(C)C)C(=O)N[C@H](C(=O)N[C@@H](C(=O)N[C@@H](Cc1c[nH]c2ccccc12)C(=O)N[C@H](CC(C)C)C(=O)N[C@@H](Cc1c[nH]c2ccccc12)C(=O)N[C@@H](C(=O)N[C@@H](Cc1c[nH]c2ccccc12)C(=O)N[C@@H](C(=O)N[C@@H](Cc1c[nH]c2ccccc12)C(=O)NCCO)C(C)C)C(C)C)[C@H](C)O)C(C)C [compound 8779] (For-VGA[dV]A[dL]V[dT]W[dL]W[dV]W[dV]W-NHCH2CH2OH),-,40.6%,1.07
